# Measured values taken from article PMC4072591, “FGFR2 Is Amplified in the NCI-H716 Colorectal Cancer Cell Line and Is Required for Growth and Survival” (PLoS ONE, 2014).
# Molecular target: T1, FGFR2 (Homo sapiens, UniProt P21802)
# T1 construct: endogenous amplified FGFR2 in NCI-H716 cells
# Test: FGFR2 Y653/[…] phosphorylation in NCI-H716 cells, western blot quantitation
# Assay type: cell-based
# T1 sequence (P21802 22-821): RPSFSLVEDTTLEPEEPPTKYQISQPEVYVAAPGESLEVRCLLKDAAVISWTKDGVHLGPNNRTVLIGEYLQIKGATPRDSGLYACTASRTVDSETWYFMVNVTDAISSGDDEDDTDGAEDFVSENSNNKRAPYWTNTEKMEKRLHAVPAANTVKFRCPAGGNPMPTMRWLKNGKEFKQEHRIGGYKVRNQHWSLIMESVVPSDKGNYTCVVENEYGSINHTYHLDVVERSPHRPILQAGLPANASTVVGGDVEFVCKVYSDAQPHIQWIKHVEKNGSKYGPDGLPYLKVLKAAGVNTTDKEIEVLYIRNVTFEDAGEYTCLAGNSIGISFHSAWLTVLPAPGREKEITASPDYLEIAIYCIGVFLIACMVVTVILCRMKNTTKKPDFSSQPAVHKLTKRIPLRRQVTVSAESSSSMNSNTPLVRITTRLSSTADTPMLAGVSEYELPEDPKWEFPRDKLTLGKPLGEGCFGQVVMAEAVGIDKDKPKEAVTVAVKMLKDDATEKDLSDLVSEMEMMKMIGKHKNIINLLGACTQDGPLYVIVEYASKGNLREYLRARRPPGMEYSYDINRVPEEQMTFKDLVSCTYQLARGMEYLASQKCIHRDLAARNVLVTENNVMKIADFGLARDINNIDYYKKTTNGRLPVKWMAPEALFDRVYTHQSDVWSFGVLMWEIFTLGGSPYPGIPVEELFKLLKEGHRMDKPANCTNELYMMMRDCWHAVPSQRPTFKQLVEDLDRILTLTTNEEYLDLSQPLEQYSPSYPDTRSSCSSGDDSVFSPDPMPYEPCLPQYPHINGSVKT
smiles,measurement,value
CN(C[C@@H]1COCCO1)S(=O)(=O)Nc1ccc2ccc3ncc(-c4cnn(C)c4)cc3c(=O)c2c1 [MK2461],IC50,165 nM
